From ChEMBL document CHEMBL1201862, “PubChem BioAssay data set” (2004)
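Compound exposure: 48 hours, 5 concentrations, 96-well plates. GI50 is the concentration that inhibits growth by half.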 Activity calls are given as the source filed them. Cut-off read from the data, not from the text of the source: active = GI50 up to about 1.1 µM and inactive = higher.

What was measured:
Test in all cases: NCI anticancer screen, dose series, 48 h
[1] = test system: KM12
[2] = test system: OVCAR-3
[3] = test system: RPMI-8226
[4] = test system: HCT-15
[5] = test system: LOX IMVI
[6] = test system: SF-268
[7] = test system: UACC-62
[8] = test system: HOP-18
[9] = test system: COLO 205
[10] = test system: HOP-62
[11] = test system: NCI-H522
[12] = test system: KM-20L2
[13] = test system: DMS-114
[14] = test system: SK-MEL-28
[15] = test system: SK-MEL-5
[16] = test system: CAKI-1
[17] = test system: OVCAR-8
[18] = test system: NCI-H226
[19] = test system: SK-OV-3
[20] = test system: SNB-19
[21] = test system: Malme-3M
[22] = test system: SF-295
[23] = test system: SK-MEL-2
[24] = test system: HL-60
[25] = test system: M14
[26] = test system: RXF 393
[27] = test system: SNB-75
[28] = test system: IGROV-1
[29] = test system: RXF 631
[30] = test system: SF-539
[31] = test system: HCT-116
[32] = test system: SR
[33] = test system: HOP-92
[34] = test system: HCC 2998
[35] = test system: A549
[36] = test system: SNB-78
[37] = test system: SN12C
[38] = test system: NCI-H460
[39] = test system: DLD-1
[40] = test system: OVCAR-4
[41] = test system: MOLT-4
[42] = test system: DMS-273
[43] = test system: U-251
[44] = test system: LXFL 529
[45] = test system: UACC-257
[46] = test system: M19-MEL
[47] = test system: ACHN
[48] = test system: CCRF-CEM
[49] = test system: TK-10
[50] = test system: HT-29
[51] = test system: 786-0
[52] = test system: K562
[53] = test system: NCI-H23
[54] = test system: UO-31
[55] = test system: XF498
[56] = test system: OVCAR-5
[57] = test system: SW-620
[58] = test system: A498
[59] = test system: EKVX

SMILES: N#CCCN(CCC#N)c1ccc(C(Sc2ccccc2)C(NC(=O)c2cc([N+](=O)[O-])ccc2Cl)C(=O)Sc2ccccc2)cc1 (configuration not stated)
- GI50 [1]: 3530 nM (inactive)
- GI50 [2]: 2560 nM (inactive)
- GI50 [3]: 1770 nM (inactive)
- GI50 [4]: 3450 nM
- GI50 [5]: 1910 nM (inactive)
- GI50 [6]: 2350 nM (inactive)
- GI50 [7]: 1680 nM (inactive)
- GI50 [8]: 24000 nM (inactive)
- GI50 [9]: 2340 nM (inactive)
- GI50 [10]: 3240 nM (inactive)
- GI50 [11]: 2360 nM (inactive)
- GI50 [12]: 2570 nM (inactive)
- GI50 [13]: 2370 nM (inactive)
- GI50 [14]: 1960 nM (inactive)
- GI50 [15]: 3270 nM (inactive)
- GI50 [16]: 1450 nM (inactive)
- GI50 [17]: 1960 nM (inactive)
- GI50 [18]: 2020 nM (inactive)
- GI50 [19]: 5420 nM (inactive)
- GI50 [20]: 3540 nM (inactive)
- GI50 [21]: 7330 nM (inactive)
- GI50 [22]: 3370 nM (inactive)
- GI50 [23]: 2300 nM (inactive)
- GI50 [24]: 1400 nM (inactive)
- GI50 [25]: 3320 nM (inactive)
- GI50 [26]: 2090 nM (inactive)
- GI50 [27]: 5410 nM (inactive)
- GI50 [28]: 1920 nM (inactive)
- GI50 [29]: 2030 nM (inactive)
- GI50 [30]: 1800 nM (inactive)
- GI50 [31]: 2170 nM (inactive)
- GI50 [32]: 1510 nM (inactive)
- GI50 [33]: 5580 nM (inactive)
- GI50 [34]: 6650 nM (inactive)
- GI50 [35]: 2880 nM (inactive)
- GI50 [36]: 4660 nM (inactive)
- GI50 [37]: 1880 nM (inactive)
- GI50 [38]: 4410 nM (inactive)
- GI50 [39]: 2520 nM (inactive)
- GI50 [40]: 6150 nM (inactive)
- GI50 [41]: 385 nM (active)
- GI50 [42]: 1560 nM (inactive)
- GI50 [43]: 1230 nM (inactive)
- GI50 [44]: 3690 nM (inactive)
- GI50 [45]: 8070 nM (inactive)
- GI50 [46]: 5360 nM (inactive)
- GI50 [47]: 3710 nM (inactive)
- GI50 [48]: 172 nM (active)
- GI50 [49]: 7280 nM (inactive)
- GI50 [50]: 4100 nM (inactive)
- GI50 [51]: 1890 nM (inactive)
- GI50 [52]: 2390 nM (inactive)
- GI50 [53]: 5060 nM (inactive)
- GI50 [54]: 2200 nM (inactive)
- GI50 [55]: 8670 nM (inactive)
- GI50 [56]: 4380 nM (inactive)
- GI50 [57]: 2190 nM (inactive)
- GI50 [58]: 2150 nM (inactive)
- GI50 [59]: 1340 nM (inactive)

SMILES: CCOc1ccc2nc(NC(=O)c3c/c(=N\NC(=O)C[N+](C)(C)C)c4ccc(O)cc4o3)sc2c1
- GI50 [1]: 5280 nM (inactive)
- GI50 [2]: 130 nM (active)
- GI50 [3]: 2150 nM (inactive)
- GI50 [4]: 5930 nM
- GI50 [5]: 1140 nM (inactive)
- GI50 [6]: 3290 nM (inactive)
- GI50 [7]: 1650 nM (inactive)
- GI50 [8]: 2060 nM (inactive)
- GI50 [9]: 1630 nM (inactive)
- GI50 [11]: 1950 nM (inactive)
- GI50 [12]: 3210 nM (inactive)
- GI50 [13]: 1910 nM (inactive)
- GI50 [14]: 5750 nM (inactive)
- GI50 [15]: 555 nM (active)
- GI50 [16]: 6040 nM (inactive)
- GI50 [17]: 2140 nM (inactive)
- GI50 [18]: 3250 nM (inactive)
- GI50 [19]: 11300 nM (inactive)
- GI50 [20]: 5650 nM (inactive)
- GI50 [21]: 1280 nM (inactive)
- GI50 [22]: 3380 nM (inactive)
- GI50 [23]: 2430 nM (inactive)
- GI50 [24]: 1590 nM (inactive)
- GI50 [25]: 1630 nM (inactive)
- GI50 [26]: 5870 nM (inactive)
- GI50 [27]: 1520 nM (inactive)
- GI50 [28]: 2650 nM (inactive)
- GI50 [29]: 6030 nM (inactive)
- GI50 [30]: 3850 nM (inactive)
- GI50 [31]: 3400 nM (inactive)
- GI50 [32]: 3050 nM (inactive)
- GI50 [33]: 1720 nM (inactive)
- GI50 [34]: 7530 nM (inactive)
- GI50 [35]: 2760 nM (inactive)
- GI50 [36]: 5000 nM (inactive)
- GI50 [37]: 3550 nM (inactive)
- GI50 [38]: 3040 nM (inactive)
- GI50 [39]: 2520 nM (inactive)
- GI50 [40]: 1740 nM (inactive)
- GI50 [41]: 1720 nM (inactive)
- GI50 [42]: 3340 nM (inactive)
- GI50 [43]: 2890 nM (inactive)
- GI50 [44]: 2020 nM (inactive)
- GI50 [45]: 1490 nM (inactive)
- GI50 [46]: 294 nM (active)
- GI50 [47]: 4520 nM (inactive)
- GI50 [48]: 1600 nM (inactive)
- GI50 [49]: 21700 nM (inactive)
- GI50 [50]: 3560 nM (inactive)
- GI50 [51]: 3620 nM (inactive)
- GI50 [52]: 1920 nM (inactive)
- GI50 [53]: 1590 nM (inactive)
- GI50 [54]: 11800 nM (inactive)
- GI50 [55]: 2830 nM (inactive)
- GI50 [56]: 3370 nM (inactive)
- GI50 [57]: 2190 nM (inactive)
- GI50 [58]: 14600 nM (inactive)
- GI50 [59]: 4440 nM (inactive)
